The text below walks through data of patent US20070275091A1, “Compositions And Methods For Improved Mucus Function” (priority 2004, published 2007).

Entries after “also recorded” stand apart in the source; their conditions may differ.

Series [1] is described as follows: Filancemeter spinnability of mucus simulant. The format is physicochemical. The following applies: model studies using vegetable polysaccharides. On the procedure: (§1) Mucus simulants (MS) were exposed to airflow in a simulated cough machine (SCM). The MS ranged from non-viscous, non-elastic substances (water—control) to MS of varying degrees of viscosity and elasticity. Mucin crosslinking was increased by adding sodium tetraborate (mucomodulator B) to viscous solutions of locust bean gum (Sigma). Mucociliary clearance of the MS was assessed on the frog palate (FIG. 5A), elasticity in the Filancemeter (FIG. 6A) and the aerosol pattern in a “bulls-eye” target (FIG. 6B). The sample loaded was weighed before and after each cough maneuver to achieve a measure of expectoration (FIG. 5B).

The subject of series [2] is frog palate epithelial model. The series can be described thus: Mucociliary clearance of borate-treated mucus simulant on frog palate. Further details: species or system Rana catesbiana. To be noted: control native frog palate mucus 24 mm/min. On the procedure:
(§2) The displacement of a 1-5 μL of endogenous frog mucus sample is timed as the trailing edge moves across a predetermined segment. MTV is calculated by dividing the distance traveled by the time elapsed, based on at least five measurements of the time required for the mucus sample to travel the defined distance (3).
as §1

In series [3] the test system is tracheal mucociliary clearance. The series can be described thus: Tracheal mucus velocity in anesthetized dogs. The format is in vivo. To be noted: for TMV: 7 mL over 20 min, jet nebulizer; for thread formation capability (a measure of elasticity) of the tracheal mucus: after aerosol exposure, not in sham or saline. On the procedure: The mucomodulator aerosols were delivered to the intubated, spontaneously breathing dogs by jet nebulizer aerosol (7 mL over 20 min). Three aerosol concentrations were delivered: Low=0.001M; Med 0.01M; High=0.1M.
The following was assessed: cardio-respiratory pattern, tracheal mucus clearance, airway patency, and mucus viscoelasticity changes.

Series [4] is described as follows: Aerosol pattern on bulls-eye target, simulated cough machine. To be noted: increasing amounts added, 1.5 μL to 150 μL. On the procedure:
as §1

Series [5] in a line: Simulated cough machine, expectoration of mucus simulant. The source says: The simulated cough machine system comprises the following elements: A 10-L tank with compressed air, which serves as a pressure reservoir that generates airflow, simulating the lungs during a cough maneuver. The pressure generated prior to a normal adult cough is approximately 8 psi pressure. This pressure value was used to simulate the airflow pattern of a human cough for each trial.
The model “trachea” is a 28 cm long rigid acrylic tube with a circular 2.5 cm cross-section. It has an 8 cm removable portion to allow us to measure the weight of the sample of mucus simulant loaded before and immediately after each “cough” maneuver. A solenoid valve located between the pressure reservoir and the model trachea control the gas released from the tank.
An aliquot of sputum or mucus simulant is layered on the bottom of the model trachea and driven forward by the pressurized gas. […] Displacement of the MS sample loaded, expressed in millimeters, is measured from the initial placement to the farthest point with a visible bulk concentration of mucus. […]
Mucus simulants (MS) were exposed to airflow in a simulated cough machine (SCM). […] Mucociliary clearance of the MS was assessed on the frog palate (FIG. 5A), elasticity in the Filancemeter (FIG. 6A) and the aerosol pattern in a “bulls-eye” target (FIG. 6B). […]

Series [6] has as its system frog palate mucociliary clearance. The series can be described thus: Frog palate mucociliary transport, agent applied topically. The arrangement: species or system Rana catesbiana. On the procedure:
as §2
In FIG. 4A, the effect of a mucomodulating agent (CaCl2) on mucociliary transport time is shown compared to Frog Ringers (FR) solution. Both solutions (FR and CaCl2) were applied topically to the palate in a volume of 5 μL. Thirty seconds were allowed for dispersion of the agent on the palate, followed by the measurement of mucociliary transport time. A droplet of mucus from the palate was placed on palate toward the mouth opening. Ciliary action transported the droplet down the palate. The measurement process (timing the movement of the droplet down the palate over a set distance of 4 mm as observed through a stereomicroscope with a reticulated eyepiece) was repeated five times and averaged to give a mean transport time for each solution.
As described above, mucomodulator solutions were applied topically to the palate in a volume of 5 μl. After 30 seconds to allow dispersion of the agent on the palate, measurements of mucociliary transport time were taken. None of the agents tested on the frog palate had any significant effect on mucociliary clearance until the highest delivered concentrations. Variations at low concentrations were due to variations in baseline frog palate mucociliary activity.

The subject of series [7] is mucus from the frog palate. To be noted: 5 μL of 0.1 M solution applied topically.
Text: From a bullfrog, Rana catesbiana, the upper portion of the head is removed modifying the procedures described in previous works. This is done by pithing the frog after lowering the body temperature to abolish pain sensation, and then cutting with scissors through from the junction of the posterior pharynx and esophagus out to the skin of the back. The palate is checked for macroscopic lesions, such as ulcers, or evidence of inflammation. The palate is then placed inside the frog chamber, a wooden box with a glass top and fitted glass front and manipulated through glove openings, and viewed under a dissecting stereomicroscope provided with a reticulated eyepiece. Humidity inside the box is maintained at 100% using a Pari nebulizer; the box is maintained at room temperature (22° to 24° C.). Before carrying out any measurement, the palate is allowed to stabilize inside the box for 15 minutes.
Samples of mucus and tissue are placed in 2.5% glutaraldehyde solution immediately after collection and stored at 4° C. until processing. Briefly, the samples are post-fixed in 1% osmium tetroxide in Millonig's buffer at room temperature for one hour. They are then washed briefly in a series of ethanol (50-100%), ten minutes at each step, followed by two additional periods of absolute ethanol (10 minutes each). […]

Turning to `[Na+].[Na+].[O-]B1OB2OB([O-])OB(O1)O2` [XL “B”, sodium tetraborate], the “elasticity relative to viscosity” value in series [1] is “preferentially raises elasticity relative to viscosity”. Further, the “mucociliary transport rate of treated mucus simulants (means)” value in series [2] is 16-20 mm/min. Moreover, the TMV in series [3] (High = 0.1M aerosol) was found to be 4.3 ± 1.53 mm/min; in series [3] (Low = 0.001M aerosol), 3.88 ± 1.66 mm/min; in series [3] (Med = 0.01M aerosol), 4.96 ± 1.99 mm/min. For the same molecule, the “thread formation capability (a measure of elasticity) of the tracheal mucus” value in series [3] is “increase”. Besides, the “particles in the aerosolization pattern” value in series [4] was “reduced to almost disappear”. In addition, the results for the “amount of MS expelled from the SCM” value in series [5] (1.5 μL added) and in series [5] (150 μL added) were 47% and 96%, respectively.

In the case of HMW dextran [XL “D”], the TMV in series [3] (High = 0.1M aerosol) amounted to 3.85 ± 2.2 mm/min; in series [3] (Low = 0.001M aerosol), 4.43 ± 3.83 mm/min; in series [3] (Med = 0.01M aerosol), 3.77 ± 1.65 mm/min. In addition, in series [3], the “thread formation capability (a measure of elasticity) of the tracheal mucus” value is reported as “increase”.

With poly-L-arginine [Mucomodulator A], the mucociliary clearance rate entry in series [6] (5 μl topical, 10^-8 to 10^-1 M, increasing applied concentration) is “significant increase”.

In the case of `[Ca+2].[Cl-].[Cl-]` [CaCl2, calcium chloride], the “effect on mucus on the surface of the palate (SE micrograph)” value in series [7] is recorded as “causes “clumping” of the mucus”. Moreover, in series [6] (5 μL topical, 30 s dispersion, 4 mm distance), the “mucociliary transport time compared to Frog Ringers” value is on record as “no significant effect; also recorded: did not alter the mucus transit time”.

As to polymyxin B [reference compound], the mucociliary clearance result in series [6] (5 μl topical, highest concentration) was “sustained decrease”; in series [6] (5 μl topical, intermediate concentration) it was “increase”.
